Tested on: B16-F10/OVA cells
Assay: Lung metastasis after intranasal melanoma vaccination, pathological observation of lung
Type: in vivo
Details: C57BL/6 mice inoculated with B16-F10/OVA cells, intranasal 100 μg/dose once a week for 3 weeks, one week after final vaccination
Procedure: 6-week old female C57BL/6 mice were intravascularly inoculated with B16-F10/OVA cells (melanoma cells expressing OVA epitopes, 5×10^5 cells/mouse). One week later, mice were divided into 4 groups (n=6 per group): vaccinated with PBS, ovalbumin (OVA), OVA adjuvanted with 0.1% PELC and OVA adjuvanted with nanoPELC. The mice were intranasally vaccinated with PBS or OVA formulation (100 μg/dose) once a week for 3 weeks. One week after the final vaccination, some of the mice were sacrificed, and the lung was isolated for pathological observation.

In the case of ovalbumin, the “melanoma infection area in the lungs (lung metastasis)” value is reported as “not as serious as the PBS group, but it still had a certain area”.

— US11160862B2, “Nanoemulsion adjuvant for nasal mucosa and preparation method thereof” (NATIONAL HEALTH RESEARCH INSTITUTES, priority 2017, dated 2021)
